Measured values as given in PMC3328416 (2012).

Molecular target: T1, glutathione peroxidase 1 (GPx-1) (Bos taurus, UniProt P00435)
T1 sequence (P00435 1-205): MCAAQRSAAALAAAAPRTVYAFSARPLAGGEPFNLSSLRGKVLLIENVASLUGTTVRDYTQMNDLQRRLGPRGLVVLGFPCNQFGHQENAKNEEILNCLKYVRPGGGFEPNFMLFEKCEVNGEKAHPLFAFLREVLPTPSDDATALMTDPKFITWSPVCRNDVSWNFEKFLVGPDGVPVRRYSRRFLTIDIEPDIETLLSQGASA
Experiment: immobilized enzyme inactivation, GR-coupled NADPH assay at […] nm after wash-out
Type: biochemical

Structure (SMILES): CCN1C(=O)C=CC1=O [NEM, N-ethylmaleimide]
- IC50: 8.77 mM
